How the values were obtained:
[1] = system: ERK1/2, Akt, p70S6K, PHAS-1 phosphorylation in LTED cells; assay: EGF induced activation of MAP kinase, PI3 kinase and mTOR in LTED cells (Western); type: cell-based, human; conditions: pretreatment FTS 1 h, LY 294002 or rapamycin 3 h; EGF 1 μg/ml 1 h
Excerpt: FIG. 8 represents data showing the effect of FTS on EGF induced activation of MAP kinase, PI3 kinase, and mTOR in LTED cells. […] Cells were then harvested and cell lysate prepared. Phosphorylated and total kinases were detected by Western analysis using specific antibodies.
The effects of the specific growth factors, EFG and IGF-1 were also examined. Serum contains multiple growth factors that activate MAP kinase and PI3 kinase either by recruitment and activation of the common mediator Ras (such as EGF) or through a direct mechanism (such as IGF-1). To further explore the site of action of FTS, EGF-induced activation of MAPK and PI3 kinase was first examined. Specific inhibitors for PI3 kinase and mammalian target of rapamycin (mTOR) were included for comparison. […] One-hour treatment was chosen as the time point allowing most efficient comparisons among molecules.

[2] = system: Shc; assay: E2-induced Shc phosphorylation in MCF-7 cells; type: cell-based, human; conditions: 10^−10 M E2 for 3 minutes
Experimental: Because ERα, Shc and MAP kinase are all involved in E2 action in MCF-7 cells, upstream components responsible for Shc phosphorylation were determined by measuring the effects of PP2, ICI and PD98059 on E2-induced phosphorylation of Shc. In the presence of the inhibitors, MCF-7 cells were stimulated with vehicle or 10^−10 M E2 for 3 minutes and the status of Shc phosphorylation was examined. […] No effects of these inhibitors were apparent in the absence of E2 stimulation. […] Each of these inhibitors was capable of reducing the rate of cell proliferation in LTED cells.

[3] = system: LTED cells; assay: [3H] thymidine incorporation into DNA, LTED cells; type: cell-based, human; conditions: inhibitors of the MAP kinase pathway
Experimental: (§1) FIGS. 5A & 5B represent the effect of FTS on DNA synthesis in MCF-7 (FIG. 5A) and LTED (FIG. 5B) cells. One hundred thousand cells were plated into each well of 24-well plates. Two days later, the cells were re-fed with IMEM containing 5% DCC-FBS. After another two days, cells were treated in quadruplicate with the compounds indicated for 18 hours. [^3H] thymidine (1 μCi/well) was added during the last 2 h of incubation. [^3H] thymidine incorporated into DNA was normalized by protein content.
(§2) The inhibitory effect of FTS on cell growth may be the result of inhibition of cellular proliferation, induction of apoptosis, or both. To determine the mechanism by which FTS inhibits cell growth, FTS's effect on DNA synthesis and apoptosis was investigated. […] Estradiol (10^−10 M) increased [^3H] thymidine incorporation by 2.6 fold compared to the control level in MCF-7 cells.

[4] = system: MCF-7 cells; assay: Growth of MCF-7 cells (cell number); type: cell-based, human; conditions: E2 10^−10 M, five-day treatment
Experimental: FIG. 3 represents the effect of FTS on the growth of MCF-7, LTED, and MCF-10A cells. Sixty thousand cells were plated into each well of 6-well plates. Two days later, the cells were treated in triplicate for five days with FTS at indicated concentrations. The results (mean±S.E.) are expressed as percentage of the vehicle control.
FIG. 4 represents the effect of FTS on E2 stimulated growth of MCF-7 and LTED cells. Thirty thousand cells were plated into each well of 6-well plates. Two days later, the cells were re-fed with IMEM containing 5% DCC-FBS. After another two days, cells were treated in triplicate with estradiol (10^−10 M) plus various concentrations of FTS for five days. In LTED cells, fulvestrant (10^−9 M) was included in all wells to block the effect of residual estrogen in the culture. The results (mean±S.E.) are expressed as percentage of cell number from the wells containing E2.
The effect of FTS on growth of breast cancer cells was examined in two different cell lines: MCF-7 wild type cells which represent a model for untreated breast cancer and LTED cells as a model of cells adapting to endocrine treatment. Cells were grown in their culture media and treated with FTS for five days. […] The effect of FTS on E2-stimulated growth of MCF-7 and LTED cells was the examined. Five-day treatment of MCF-7 cells with E2 (10^−10 M) increased cell number by 8-fold compared with the vehicle control. Addition of FTS reduced cell number in a dose-dependent manner with about 50% inhibition at the concentration of 50 μM […]. […] The extent of inhibition of E2-stimulated cell growth by FTS was similar in these two cell lines.

[5] = system: MCF-7 cells; assay: [3H] thymidine incorporation into DNA, MCF-7 cells; type: cell-based, human; conditions: Estradiol 10^−10 M
Experimental: as §1, §2

[6] = system: MAP kinase; assay: MAP kinase activation in LTED cells; type: cell-based, human
Experimental: Upregulation of MAP kinase and PI-3-kinase could reflect either a constitutive activation of growth factor receptors, an increase in the endogenous secretion of growth factors, or other mechanisms. Inhibition of MAP kinase with a pure antiestrogen would rule out the possibility of constitutive activation of growth factor receptors or growth factor secretion. Accordingly, the pure anti-estrogen, faslodex (fulvestrant) was administered and the level of activation of MAP kinase in LTED cells was examined.
Estrogen deprivation might trigger activation of a non-genomic, estrogen regulated, MAP kinase pathway which utilizes Shc. […] The addition of E2 stimulated MAP kinase phosphorylation in LTED cells within minutes. The increased MAP kinase phosphorylation by E2 was time and dose-dependent being greatly stimulated at 15 min and remaining elevated for at least 30 min. Maximal stimulation of MAP kinase phosphorylation was at 10^−10 M of E2.

[7] = target: T1, mTOR (Rattus norvegicus, UniProt P42346); assay: Immune complex assay of mTOR activity after incubating 293T cells with compound; type: cell-based; conditions: 293T cells incubated with 200 μM
T1 construct: expressed in transfected cells; host or cells: 293T
Experimental: (§3) FIGS. 12A & 12B represent data showing the effects of incubating cells with increasing concentrations of FTS and GTS on mTOR activity and mTOR association with raptor and mLST8. AU1-mTOR, HA-raptor, and HAmLST8 were overexpressed in 293T cells. The cells were then incubated for 1 h with increasing concentrations of FTS (●, ▴, ▪) or GTS (∘, Δ, □) before extracts were prepared. Immunoprecipitations were then conducted with anti-AU1 antibodies. mTOR kinase activity (●, ∘) was determined by measuring ^32P incorporation into [His^6]PHAS-I in immune complex kinases assays performed with [γ-^32P]ATP. The relative amounts of HA-raptor (▴, Δ) and HA-mLST8 (▪, □) that coimmunoprecipitated with AU1-mTOR were determined after immunoblotting with anti-HA antibodies. The results (mean values±S.E. from 3 experiments) are expressed as percentages of the mTOR activity (FIG. 12A) or coimmunoprecipitating proteins (FIG. 12B) from samples incubated without FTS or GTS, and have been corrected for the amounts of AU1-mTOR immunoprecipitated.
FIG. 12A presents results of immune complex kinases assays with AU1-mTOR from extracts of 293T cells that had been incubated with increasing concentrations of FTS.
Immune complex assay of mTOR activity—AU1-mTOR was immunoprecipitated by using anti-AU1 antibody bound to protein G-agarose beads as described previously (McMahon, et al., (2002) Mol. Cell. Biol. 22, 7428-7438). Endogenous mTOR was immunoprecipitated in the same manner, except that mTAb1 was used instead of anti-AU1 antibody. To measure kinase activity, exhaustively washed immune complexes were suspended in 20 μl of Buffer A (50 mM NaCl, 0.1 mM EGTA, 1 mM dithiothreitol (DTT), […], 10 mM Na-HEPES, and 50 mM β-glycerophosphate, pH 7.4.). The kinase reactions were initiated by adding 20 μl of Buffer A supplemented with 2 mM [γ-^32P]ATP, 20 mM MnCl2 and 40 μg/ml of [His^6]PHAS-I. In experiments in which the effects of wortmannin were investigated, DTT was omitted from the reactions, and [His^6]PHAS-I that had been reduced and alkylated with N-ethylmaleimide was used as substrate. Reactions were terminated after 10 min at 30° by adding SDS sample buffer. Samples were subjected to SDS-PAGE and the relative amounts of ^32P incorporated into [His^6]PHAS-I were determined.

[8] = system: mTOR-raptor complex; assay: Coimmunoprecipitation of raptor with mTOR from 293T cells incubated with compound; type: cell-based; conditions: 293T cells incubated with 200 μM
Experimental: FIG. 11A & 11B represent data showing FTS inhibits PHAS-I phosphorylation and promotes dissociation of the mTOR-raptor complex in 293T cells. 293T cells were transfected with pcDNA3AU1-mTOR, pcDNA33HARaptor, pcDNA33HA-mLST8, and pCMV-Tag3APHAS-I (FIG. 11A). After 18 h the cells were incubated for 1 h with increasing concentrations of FTS before extracts were prepared. A sample of each extract was subjected to SDS-PAGE and immunoblotted to detect PHAS-I or PThr^36/45. AU1-mTOR was also immunoprecipitated from each extract, and immune complexes were subjected to SDSPAGE and immunoblotted with mTAb2, to detect mTOR, and with anti-HA antibodies, to detect HA-mLST8 and HA-raptor. Nontransfected 293T cells were incubated with increasing concentrations of FTS for 1 h before extracts were prepared. mTOR was immunoprecipitated with mTAb1, and samples were subjected to SDS-PAGE.
as §3
To investigate further the inhibitory effects of FTS on mTOR signaling, the effect of the drug on the association of mTOR, raptor, and mLST8 was determined. AU1-mTOR and HA-tagged forms of raptor and mLST8 were overexpressed in 293T cells, which were then incubated with increasing concentrations of FTS before AU1-mTOR was immunoprecipitated with anti-AU1 antibodies. Immunoblots were prepared with anti-HA antibodies to assess the relative amounts of HA-raptor and HA-mLST8 that coimmunoprecipitated with AU 1-mTOR (FIG. 11A).
Results obtained with overexpressed proteins are not necessarily representative of responses of endogenous proteins. Therefore, experiments were conducted to investigate the effect FTS on the endogenous TORC1 in nontransfected cells. […]

[9] = system: MCF-7 cells; assay: Estradiol dose response of growth, wild type MCF-7 cells; type: cell-based, human; conditions: TGF alpha 10 ng/ml
Experimental: As further evidence of the role of MAP kinase, PD 98059 was administered to LTED cells and its effect on level of sensitivity to estradiol was examined.
To investigate whether the MAP and P13 kinase pathways have a role in estradiol induced cell proliferation, the following experiments were conducted. […] Blockade of this effect was obtained with the MAPK inhibitor PD98059. Administration of TGF at a dose of 10 ng/ml caused a 2-log shift to the left in the ability of estradiol to stimulate the growth of wild-type MCF-7 cells. […] Dual inhibition of PI3K with LY40029 and MAPK with U0126 shifted the level of sensitivity to estradiol more dramatically, by more than 2 logs to the right. On the basis of these observations, it is believed that adaptive hypersensitivity involves the joint activation of the PI3K and MAPK pathways.

Compound: O=c1cc(N2CCOCC2)oc2c(-c3ccccc3)cccc12 [LY 294002, reference compound]
- EGF-induced ERK1/2 MAP kinase phosphorylation [1]: did not inhibit

Compound: CC(C)(C)n1nc(-c2ccc(Cl)cc2)c2c(N)ncnc21 [PP2]
- E2-induced Shc phosphorylation [2]: effectively inhibited

Compound: N#CC(=C(/N)Sc1ccccc1N)/C(C#N)=C(\N)Sc1ccccc1N [U 0126]
- incorporation of tritiated thymidine into DNA [3]: block the incorporation

Compound: C[C@]12CC[C@@H]3c4ccc(O)cc4CC[C@H]3[C@@H]1CC[C@@H]2O [estradiol, reference compound]
- increase of cell number compared with the vehicle control [4]: 8 fold
- increase of [3H] thymidine incorporation compared to control level [5]: 2.6 fold
- concentration of maximal stimulation of MAP kinase phosphorylation [6]: 10^−10 M

Compound: O=c1c(-c2ccc(O)cc2)coc2cc(O)cc(O)c12 [genestein]
- incorporation of tritiated thymidine into DNA [3]: block tritiated thymidine uptake

Compound: CC[C@H](C)C(=O)O[C@H]1CCC=C2C=C[C@H](C)[C@H](CC[C@@H]3C[C@@H](O)CC(=O)O3)[C@H]21 [mevastatin]
- incorporation of tritiated thymidine into DNA [3]: block tritiated thymidine uptake

Compound: CO[C@H]1C[C@@H]2CC[C@@H](C)[C@@](O)(O2)C(=O)C(=O)N2CCCC[C@H]2C(=O)O[C@H]([C@H](C)C[C@@H]2CC[C@@H](O)[C@H](OC)C2)CC(=O)[C@H](C)/C=C(\C)[C@@H](O)[C@@H](OC)C(=O)[C@H](C)C[C@H](C)/C=C/C=C/C=C/1C [rapamycin, reference compound]
- EGF-induced ERK1/2 MAP kinase phosphorylation [1]: did not inhibit

Compound: O=C([O-])c1ccccc1O.[Na+] [sodium salicylate, reference compound]
- mTOR activity [7]: without effect
- association of mTOR and raptor [8]: without effect

Compound: TGF alpha: growth factor used to activate MAP kinase in wild type MCF-7 cells
- shift to the left of estradiol dose response for growth [9]: two log shift to the left
- shift to the left of estradiol dose response for growth ([9]; listed as TGF): 2 log

— patent US20070037887A1, “Blockade of mtor to prevent a hormonal adaptive response” (University of Virginia Patent Foundation, priority 2003, published 2007)
